Reference: patent US5955471A, “Tetrahydroisoquinolinealkanol derivatives and pharmaceutical compositions containing same” (SK Corporation, priority 1998, dated 1999)

Experiments:
[1] = test system: MAO-A; assay: MAO-A inhibiting activity in vitro, rat liver mitochondrial membranes; assay type: biochemical; conditions: 10 uM; 300 nM deprenyl to block MAO-B; 60 minutes preincubation, 37° C., pH 7.2; [14C] Serotonin
Procedure: The MAO-A activities in vitro were measured using Rat liver mitochondrial membranes as the source of the enzyme, according to a modified method of S. Otsuka & Y. Kobayashi: A Radioisotopic Assay for Monoamine Oxidase Determinations in Human Plasma. Biochem. Pharmacol. 13: 995-1006 (1964)
Rat liver mitochondrial membranes are preincubated with drug or vehicle, and subtype selective blocker (300 nM deprenyl to block the B type of MAO) for 60 minutes at 37° C. in 100 mM KPO4 (pH 7.2). [^14 C] Serotonin ([…]) is then added and incubated for 10 minutes. The reaction is stopped by the addition of 0.5 ml of 2M citric acid. Radioactive product is extracted into a toluene/ethyl acetate fluor and compared to control values by scintillation spectrophotometry in order to ascertain any interactions of test compounds with MAO-A.

[2] = Behavior Despair (Forced Swimming) test in rats (po); assay type: in vivo; conditions: 60 mg/kg (po), 4-minute test period, vs control vehicle
Procedure: (§1) Behavior Despair (Forced Swimming) test, a well known pharmacological screening method for depression, was conducted similary to the test described by Porsolt, R. D., Bertin, A and Jalfre, M.: Behavior despair in mice: A preliminary screening test for antidepressants. Arch. Int. Pharmacodyn. Ther. 229: 327-336, 1977.
Rats were pre-swam for 10 minutes the day before the test in 4000 mL glass cylinders containing water at 25° C. On the following day, rats were dosed orally (po) with either test compound or vehicle. One hour later each animal was placed in a glass cylinder and, following a 2-minute pretest, immobility was recorded for a 4-minute test period. For calculation of percent (%) reduction in immobility time, the difference in immobility time for control vehicle versus the drug is divided by the immobility time of the control vehicle and multiplied by 100.

[3] = test system: 5-HT-mediated head-twitch response; assay: Head-Twitch Test (5-HTP-induced head-twitch response in mice); assay type: in vivo; conditions: oral, vs control vehicle
Procedure: The head-twitch response of mice is initiated by a variety of 5-HT mimetic drugs. The test was conducted in a manner similar to the procedure described by Heal, D. J., Philpot, J, O'Shaughnessy, K. M. and Davies, C. L.: The influence of central noradrenergic function on 5-HT-mediated head-twitch responses in mice: Possible implications for the actions of antidepressant drugs. Psychopharmacology 89: 414-420, 1986,
The head-twitch consisted of a characteristic rotation of the head, neck and shoulders of the mice. The test drug or vehicle was given by oral gavage. Thirty minutes later all animals were pretreated with carbidopa (25 mg/kg ip). Fifteen minutes following carbidopa administration, the mice were injected with 100 mg/kg ip of L-5-hydroxytryptophan (5-HTP). The animals were then left for 30 minutes before measurement of the head-twitch response in the following 2-minute period. For calculation of percent (%) response increase, the difference in drug head twitch number versus the control vehicle head twitch number is divided by the control head twitch and multiplied by 100.

[4] = Behavior Despair (Forced Swimming) test in mice (ip); assay type: in vivo; conditions: 30 mg/kg (ip), 15-minute test period, vs control vehicle
Procedure: as §1
Mice were dosed intraperitoneally (ip) with either test compound or vehicle. One hour later each animal was placed in a 1500 mL glass beaker containing water at room temperature. Mice were kept in the water for a period of 15 minutes and the duration of immobility observed within the 15-minute test period was recorded. A mouse was judged to be immobile if it floated motionlessly in the water making only those movements necessary to keep its head above the water. For calculation of percent (%) reduction in immobility time, the difference in immobility time for control vehicle versus the drug is divided by the immobility time of the control vehicle and multiplied by 100.

## NC(=O)OC[C@@H]1Cc2ccccc2CN1 [Example 3, (S)-3-Carbamoyloxymethyl-1,2,3,4-tetrahydroisoquinoline]
[1]
  % Inhibition (MAO-A): 97.7%
[2]
  % Reduction (immobility time): 83%
[3]; 1 mg/kg
  % Response Increase: 238%

## NC(=O)OC[C@H]1Cc2ccccc2CN1 [Example 4, (R)-3-Carbamoyloxymethyl-1,2,3,4-tetrahydroisoquinoline]
[1]
  % Inhibition (MAO-A): 63.9%
[3]; 15 mg/kg
  % Response Increase: 258%

## NC(=O)OC[C@@H]1Cc2ccccc2CN1 [Example 5, (S)-3-Carbamoyloxymethyl-1,2,3,4-tetrahydroisoquinoline]
[3]; 3 mg/kg
  % Response Increase: 144%

## CN1Cc2ccccc2C[C@H]1COC(N)=O [Example 8, (S)-3-Carbamoyloxymethyl-N-methyl-1,2,3,4-tetrahydroisoquinoline]
[3]; 1 mg/kg
  % Response Increase: 77%

## NC(=S)OCC1Cc2ccccc2CN1 (centres unmarked) [Example 14, 3-Thiocarbamoyloxymethyl-1,2,3,4-tetrahydroisoquinoline]
[3]; 8 mg/kg
  % Response Increase: 42%

## CNC(=S)OC[C@@H]1Cc2ccccc2CN1 [Example 16, (S)-3-(N-Methylthiocarbamoyloxymethyl)-1,2,3,4-tetrahydroisoquinoline]
[4]
  % Reduction (immobility time): 56%

## CNC(=S)OC[C@@H]1Cc2ccccc2CN1C(=O)Nc1ccccc1 [Example 17, (S)-3-(N-Methyl-thiocarbamoyloxymethyl)-N-(anilinocarbonyl)-1,2,3,4-tetrahydroisoquinoline]
[4]
  % Reduction (immobility time): 46%

## CNC(=S)OC[C@@H]1Cc2ccccc2CN1C [Example 18]
[4]
  % Reduction (immobility time): 33%
